Measurements published in publication PMC10408569, “Recruitment of hexahydroquinoline as anticancer scaffold targeting inhibition of wild and mutants EGFR (EGFR^WT, EGFR^T790M, and EGFR^L858R)” (Journal of Enzyme Inhibition and Medicinal Chemistry, 2023).

Experiments:
SK-MEL-2 = assay: NCI-60 anticancer screening (SRB); assay type: cell-based; conditions: Homo sapiens
UACC-257 = assay: NCI-60 anticancer screening (SRB); assay type: cell-based; conditions: Homo sapiens
OVCAR-4 = assay: NCI-60 anticancer screening (SRB); assay type: cell-based; conditions: Homo sapiens
MDA-MB-468 = assay: NCI-60 anticancer screening (SRB); assay type: cell-based; conditions: Homo sapiens
OVCAR-3 = assay: NCI-60 anticancer screening (SRB); assay type: cell-based; conditions: Homo sapiens
RPMI-8226 = assay: NCI-60 anticancer screening (SRB); assay type: cell-based; conditions: Homo sapiens
NCI-H522 = assay: NCI-60 anticancer screening (SRB); assay type: cell-based; conditions: Homo sapiens
HOP-62 = assay: NCI-60 anticancer screening (SRB); assay type: cell-based; conditions: Homo sapiens
NCI 60 cancer cell lines = assay: NCI-60 anticancer screening (SRB), whole panel; assay type: cell-based, human
HCC-2998 = assay: NCI-60 anticancer screening (SRB); assay type: cell-based; conditions: Homo sapiens
SF-268 = assay: NCI-60 anticancer screening (SRB); assay type: cell-based; conditions: Homo sapiens
ACHN = assay: NCI-60 anticancer screening (SRB); assay type: cell-based; conditions: Homo sapiens
T-47D = assay: NCI-60 anticancer screening (SRB); assay type: cell-based; conditions: Homo sapiens, T47D
A549/ATCC = assay: NCI-60 anticancer screening (SRB); assay type: cell-based; conditions: Homo sapiens
LOX IMVI = assay: NCI-60 anticancer screening (SRB); assay type: cell-based; conditions: Homo sapiens
HL-60(TB) = assay: NCI-60 anticancer screening (SRB); assay type: cell-based; conditions: Homo sapiens
SW-620 = assay: NCI-60 anticancer screening (SRB); assay type: cell-based; conditions: Homo sapiens
HCT-15 = assay: NCI-60 anticancer screening (SRB); assay type: cell-based; conditions: Homo sapiens
NCI-H322M = assay: NCI-60 anticancer screening (SRB); assay type: cell-based; conditions: Homo sapiens
NCI-H226 = assay: NCI-60 anticancer screening (SRB); assay type: cell-based; conditions: Homo sapiens
OVCAR-5 = assay: NCI-60 anticancer screening (SRB); assay type: cell-based; conditions: Homo sapiens
SNB-75 = assay: NCI-60 anticancer screening (SRB); assay type: cell-based; conditions: Homo sapiens
SK-OV-3 = assay: NCI-60 anticancer screening (SRB); assay type: cell-based; conditions: Homo sapiens
MOLT-4 = assay: NCI-60 anticancer screening (SRB); assay type: cell-based; conditions: Homo sapiens
KM 12 = assay: NCI-60 anticancer screening (SRB); assay type: cell-based; conditions: Homo sapiens, KM12
SNB-19 = assay: NCI-60 anticancer screening (SRB); assay type: cell-based; conditions: Homo sapiens
K-562 = assay: NCI-60 anticancer screening (SRB); assay type: cell-based; conditions: Homo sapiens, K562
SK-MEL-5 = assay: NCI-60 anticancer screening (SRB); assay type: cell-based; conditions: Homo sapiens
OVCAR-8 = assay: NCI-60 anticancer screening (SRB); assay type: cell-based; conditions: Homo sapiens
MDA-MB-435 = assay: NCI-60 anticancer screening (SRB); assay type: cell-based; conditions: Homo sapiens
SR = assay: NCI-60 anticancer screening (SRB); assay type: cell-based; conditions: Homo sapiens
RXF 393 = assay: NCI-60 anticancer screening (SRB); assay type: cell-based; conditions: Homo sapiens
[1] = leukemia, one dose 10 μM, read-out: Growth Inhibition Percentage (GI %)

CCOC(=O)C1=C(N)N(c2ccccc2)C2=C(C(=O)CC(C)(C)C2)C1c1ccc(Cl)cc1Cl (racemic) [10c, (±)-Ethyl 2-amino-4–(2,4-dichlorophenyl)-7,7-dimethyl-5-oxo-1-phenyl-1,4,5,6,7,8-hexahydroquinoline-3-carboxylate]
inhibition at 10 µM (SK-MEL-2; SK-MEL-2, melanoma, one dose 10 μM, read-out: Growth Inhibition Percentage (GI %)): 112%
GI50 (SK-MEL-2; SK-MEL-2, five doses 0.01-100 µM, 48 h): 1.7 µM
inhibition at 10 µM (UACC-257; UACC-257, melanoma, one dose 10 μM, read-out: Growth Inhibition Percentage (GI %)): 65%
GI50 (UACC-257; UACC-257, five doses 0.01-100 µM, 48 h): 2.88 µM
inhibition at 10 µM (OVCAR-4; OVCAR-4, ovarian cancer, one dose 10 μM, read-out: Growth Inhibition Percentage (GI %)): 75%
GI50 (OVCAR-4; OVCAR-4, five doses 0.01-100 µM, 48 h): 2.83 µM
inhibition at 10 µM (MDA-MB-468; MDA-MB-468, breast cancer, one dose 10 μM, read-out: Growth Inhibition Percentage (GI %)): 96%
GI50 (MDA-MB-468; MDA-MB-468, five doses 0.01-100 µM, 48 h): 6.83 µM
inhibition at 10 µM (OVCAR-3; OVCAR-3, ovarian cancer, one dose 10 μM, read-out: Growth Inhibition Percentage (GI %)): 67%
GI50 (OVCAR-3; OVCAR-3, five doses 0.01-100 µM, 48 h): 2.62 µM
inhibition at 10 µM (RPMI-8226; RPMI-8226, leukemia, one dose 10 μM, read-out: Growth Inhibition Percentage (GI %)): 92%
GI50 (RPMI-8226; RPMI-8226, five doses 0.01-100 µM, 48 h): 7.07 µM
inhibition at 10 µM (NCI-H522; NCI-H522, NSC lung cancer, one dose 10 μM, read-out: Growth Inhibition Percentage (GI %)): 65%
GI50 (NCI-H522; NCI-H522, five doses 0.01-100 µM, 48 h): 2.22 µM
inhibition at 10 µM (HOP-62; HOP-62, NSC lung cancer, one dose 10 μM, read-out: Growth Inhibition Percentage (GI %)): 49%
GI50 (HOP-62; HOP-62, five doses 0.01-100 µM, 48 h): 4.88 µM
LC50 (50% lethal concentration) (NCI 60 cancer cell lines; Homo sapiens, 60 cell, five doses, read-out: LC50 values towards 60 cell lines): > 100 µM
GI50 (NCI 60 cancer cell lines; Homo sapiens, five doses 0.01-100 µM, 48 h, read-out: GI50 range against nearly all the tested cell lines): 1.04 to 9.56 µM
GI % mean (NCI 60 cancer cell lines; mean across the NCI-60 panel, one dose 10 μM): 74%
inhibition at 10 µM (HCC-2998; HCC-2998, colon cancer, one dose 10 μM, read-out: Growth Inhibition Percentage (GI %)): 62%
GI50 (HCC-2998; HCC-2998, five doses 0.01-100 µM, 48 h): 2.77 µM
inhibition at 10 µM (SF-268; SF-268, CNS cancer, one dose 10 μM, read-out: Growth Inhibition Percentage (GI %)): 48%
GI50 (SF-268; SF-268, five doses 0.01-100 µM, 48 h): 5.32 µM
GI50 (ACHN; five doses 0.01-100 µM, 48 h): 1.83 µM
inhibition at 10 µM (ACHN; renal cancer, one dose 10 μM, read-out: Growth Inhibition Percentage (GI %)): 83%
inhibition at 10 µM (T-47D; breast cancer, one dose 10 μM, read-out: Growth Inhibition Percentage (GI %)): 79%
GI50 (T-47D; five doses 0.01-100 µM, 48 h): 1.04 µM
inhibition at 10 µM (A549/ATCC; A549/ATCC, NSC lung cancer, one dose 10 μM, read-out: Growth Inhibition Percentage (GI %)): 73%
GI50 (A549/ATCC; A549, five doses 0.01-100 µM, 48 h): 1.88 µM
GI50 (LOX IMVI; five doses 0.01-100 µM, 48 h): 3.24 µM
inhibition at 10 µM (LOX IMVI; melanoma, one dose 10 μM, read-out: Growth Inhibition Percentage (GI %)): < 10%
GI50 (HL-60(TB); five doses 0.01-100 µM, 48 h): 5.95 µM
inhibition at 10 µM (HL-60(TB); [1]): 99%
inhibition at 10 µM (SW-620; SW-620, colon cancer, one dose 10 μM, read-out: Growth Inhibition Percentage (GI %)): < 10%
GI50 (SW-620; SW-620, five doses 0.01-100 µM, 48 h): 2.9 µM
inhibition at 10 µM (HCT-15; HCT-15, colon cancer, one dose 10 μM, read-out: Growth Inhibition Percentage (GI %)): 86%
GI50 (HCT-15; HCT-15, five doses 0.01-100 µM, 48 h): 1.52 µM
GI50 (NCI-H322M; NCI-H322-M, five doses 0.01-100 µM, 48 h): 7.71 µM
inhibition at 10 µM (NCI-H322M; NSC lung cancer, one dose 10 μM, read-out: Growth Inhibition Percentage (GI %)): 43%
inhibition at 10 µM (NCI-H226; NCI-H226, NSC lung cancer, one dose 10 μM, read-out: Growth Inhibition Percentage (GI %)): 76%
GI50 (NCI-H226; NCI-H226, five doses 0.01-100 µM, 48 h): 2.34 µM
inhibition at 10 µM (OVCAR-5; OVCAR-5, ovarian cancer, one dose 10 μM, read-out: Growth Inhibition Percentage (GI %)): 43%
GI50 (OVCAR-5; OVCAR-5, five doses 0.01-100 µM, 48 h): 7.26 µM
inhibition at 10 µM (SNB-75; SNB-75, CNS cancer, one dose 10 μM, read-out: Growth Inhibition Percentage (GI %)): 59%
GI50 (SNB-75; SNB-75, five doses 0.01-100 µM, 48 h): 5.33 µM
inhibition at 10 µM (SK-OV-3; SK-OV-3, ovarian cancer, one dose 10 μM, read-out: Growth Inhibition Percentage (GI %)): 66%
GI50 (SK-OV-3; SK-OV-3, five doses 0.01-100 µM, 48 h): 3.35 µM
inhibition at 10 µM (MOLT-4; MOLT-4, leukemia, one dose 10 μM, read-out: Growth Inhibition Percentage (GI %)): 93%
GI50 (MOLT-4; MOLT-4, five doses 0.01-100 µM, 48 h): 9.56 µM
inhibition at 10 µM (KM 12; KM 12, colon cancer, one dose 10 μM, read-out: Growth Inhibition Percentage (GI %)): 81%
GI50 (KM 12; KM-12, five doses 0.01-100 µM, 48 h): 2.36 µM
inhibition at 10 µM (SNB-19; SNB-19, CNS cancer, one dose 10 μM, read-out: Growth Inhibition Percentage (GI %)): 72%
GI50 (SNB-19; SNB-19, five doses 0.01-100 µM, 48 h): 2.92 µM
inhibition at 10 µM (K-562; K-562, leukemia, one dose 10 μM, read-out: Growth Inhibition Percentage (GI %)): 87%
GI50 (K-562; K-562, five doses 0.01-100 µM, 48 h): 7.23 µM
inhibition at 10 µM (SK-MEL-5; SK-MEL-5, melanoma, one dose 10 μM, read-out: Growth Inhibition Percentage (GI %)): 102%
GI50 (SK-MEL-5; SK-MEL-5, five doses 0.01-100 µM, 48 h): 1.24 µM
inhibition at 10 µM (OVCAR-8; OVCAR-8, ovarian cancer, one dose 10 μM, read-out: Growth Inhibition Percentage (GI %)): 63%
GI50 (OVCAR-8; OVCAR-8, five doses 0.01-100 µM, 48 h): 3.72 µM
inhibition at 10 µM (MDA-MB-435; MDA-MB-435, melanoma, one dose 10 μM, read-out: Growth Inhibition Percentage (GI %)): 71%
GI50 (MDA-MB-435; MDA-MB-435, five doses 0.01-100 µM, 48 h): 3.21 µM
GI50 (SR; five doses 0.01-100 µM, 48 h): 1.47 µM
inhibition at 10 µM (SR; [1]): 90%
inhibition at 10 µM (RXF 393; RXF 393, renal cancer, one dose 10 μM, read-out: Growth Inhibition Percentage (GI %)): 79%
GI50 (RXF 393; RXF 393, five doses 0.01-100 µM, 48 h): 1.38 µM
